From PubChem BioAssay AID298 (DTP/NCI, 2004)
Results filed as inconclusive are left out.

System: MX-1 breast xenograft, intrarenal, nude mice, tumor weight
Assay: NCI In Vivo Anticancer Drug Screen. Data for tumor model Human Mammary Carcinoma MX-1 Xenograft (intrarenal inoculation) in NU/NU BALB/C (nude) mice
Details: endpoint: mean tumor weight change, higher = larger tumour
How it was run: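 Antitumor activity is expressed as a T/C ratio. The treated group's tumor size or survival is compared against the vehicle-treated control group in mice bearing transplanted tumors.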

[1] = dose: 75.0 mg/kg/injection, schedule: Q04DX003 (ip), vehicle: saline
[2] = dose: 150.0 mg/kg/injection, schedule: Q04DX003 (ip), vehicle: saline
[3] = dose: 300.0 mg/kg/injection, schedule: Q04DX003 (ip), vehicle: saline
[4] = dose: 600.0 mg/kg/injection, schedule: Q04DX003 (ip), vehicle: saline
[5] = dose: 1200.0 mg/kg/injection, schedule: Q04DX003 (ip), vehicle: saline
[6] = dose: 150.0 mg/kg/injection, schedule: Q04DX003 (ip), vehicle: saline with Tween-80
[7] = dose: 300.0 mg/kg/injection, schedule: Q04DX003 (ip), vehicle: saline with Tween-80
[8] = dose: 600.0 mg/kg/injection, schedule: Q04DX003 (ip), vehicle: saline with Tween-80

`O=CC(O)C(O)C(O)C(O)CO` (configuration not stated) was tested, and the T/C [1] was 72 % of control, the T/C [2] was 113 % of control and the T/C [3] was 65 % of control. The T/C [4] was 93 % of control and the T/C [5] was 59 % of control.
`CCCC1CCC(=C2C(=O)CCC2=O)O1` (configuration not stated) was tested, and the T/C [6] was 68 % of control.
`CCC1OC(OC)C=CC1=O` (configuration not stated) was tested, and the T/C (dose: 18.75 mg/kg/injection, schedule: Q04DX003 (sc), vehicle: saline) was 112 % of control, the T/C (dose: 37.5 mg/kg/injection, schedule: Q04DX003 (sc), vehicle: saline) was 63 % of control and the T/C (dose: 75.0 mg/kg/injection, schedule: Q04DX003 (sc), vehicle: saline) was 98 % of control.
For `C=C(C)C(=O)O[C@H]1CC2=C[C@@H](C[C@@]3(C)O[C@@H]3[C@H]3OC(=O)C(=C)[C@@H]31)OC2=O`, the T/C (dose: 37.5 mg/kg/injection, schedule: Q04DX003 (sc), vehicle: Klucel (hydroxypropylcellulose) (HPC)) was 96 % of control, the T/C (dose: 75.0 mg/kg/injection, schedule: Q04DX003 (sc), vehicle: Klucel (hydroxypropylcellulose) (HPC)) was 78 % of control and the T/C (dose: 150.0 mg/kg/injection, schedule: Q04DX003 (sc), vehicle: Klucel (hydroxypropylcellulose) (HPC)) was 104 % of control. The T/C (dose: 300.0 mg/kg/injection, schedule: Q04DX003 (sc), vehicle: Klucel (hydroxypropylcellulose) (HPC)) was 72 % of control.
For `Cc1ccc(NN=O)nc1`, the T/C (dose: 9.35 mg/kg/injection, schedule: Q04DX003 (ip), vehicle: water) was 11 % of control, the T/C (dose: 9.37 mg/kg/injection, schedule: Q04DX003 (ip), vehicle: water) was -9 % of control and the T/C (dose: 18.7 mg/kg/injection, schedule: Q04DX003 (ip), vehicle: water) was 6 % of control. The T/C (dose: 18.75 mg/kg/injection, schedule: Q04DX003 (ip), vehicle: water) was -21 % of control and the T/C (dose: 37.5 mg/kg/injection, schedule: Q04DX003 (ip), vehicle: water) was -69 % of control.
In the case of `O=C(NNC(=O)c1cccc(C(=O)NNC(=O)c2ccc(Cl)c(Cl)c2)n1)c1ccc(Cl)c(Cl)c1`, the T/C (dose: 50.0 mg/kg/injection, schedule: Q04DX003 (ip), vehicle: saline with Tween-80) is reported as 106 % of control, the T/C (dose: 100.0 mg/kg/injection, schedule: Q04DX003 (ip), vehicle: saline with Tween-80) is reported as 78 % of control and the T/C [6] is reported as 73 % of control. For the same compound, the T/C (dose: 200.0 mg/kg/injection, schedule: Q04DX003 (ip), vehicle: saline with Tween-80) was 98 % of control, the T/C [7] was 64 % of control and the T/C (dose: 400.0 mg/kg/injection, schedule: Q04DX003 (ip), vehicle: saline with Tween-80) was 102 % of control. The T/C [8] was 65 % of control.
With `Cn1cc(NC(=O)c2cc(NC(=O)c3cc(NC=O)cn3C)cn2C)cc1C(=O)NCCC(=N)N` the T/C (dose: 50.0 mg/kg/injection, schedule: Q04DX003 (ip), vehicle: water) was 82 % of control, the T/C (dose: 100.0 mg/kg/injection, schedule: Q04DX003 (ip), vehicle: water) was 83 % of control and the T/C (dose: 200.0 mg/kg/injection, schedule: Q04DX003 (ip), vehicle: water) was 51 % of control.
With `CNC(=O)Oc1ccc(S(=O)(=O)c2ccc(OC(=O)NC)cc2)cc1` the T/C [6] was 98 % of control, the T/C [7] was 89 % of control and the T/C [8] was 33 % of control.
For `COc1cc(C2c3cc4c(cc3[C@@H](OC3OC5CO[C@@H](C)OC5C(O)C3O)[C@H]3COC(=O)C23)OCO4)cc(OC)c1OC` (some centres not stated), the T/C (dose: 25.0 mg/kg/injection, schedule: Q04DX003 (ip), vehicle: saline) was 88 % of control, the T/C (dose: 50.0 mg/kg/injection, schedule: Q04DX003 (ip), vehicle: saline) was 84 % of control and the T/C (dose: 100.0 mg/kg/injection, schedule: Q04DX003 (ip), vehicle: saline) was 55 % of control. The T/C (dose: 200.0 mg/kg/injection, schedule: Q04DX003 (ip), vehicle: saline) was 61 % of control and the T/C (dose: 400.0 mg/kg/injection, schedule: Q04DX003 (ip), vehicle: saline) was 32 % of control.
With `NC(=S=O)C(N)=S=O` the T/C (dose: 125.0 mg/kg/injection, schedule: Q04DX003 (ip), vehicle: saline with Tween-80) was 42 % of control, the T/C (dose: 250.0 mg/kg/injection, schedule: Q04DX003 (ip), vehicle: saline with Tween-80) was 65 % of control and the T/C (dose: 500.0 mg/kg/injection, schedule: Q04DX003 (ip), vehicle: saline with Tween-80) was 60 % of control.
In the case of `OCC(O)C(O)C(O)C(O)CO` (configuration not stated), the T/C [1] is reported as 75 % of control, the T/C [2] is reported as 103 % of control and the T/C [3] is reported as 91 % of control. The T/C [4] was 94 % of control and the T/C [5] was 70 % of control.
With `COc1ccc(S(=O)(=O)N/N=C/C(=O)O)cc1` the T/C (dose: 25.0 mg/kg/injection, schedule: Q01DX010 (sc), vehicle: saline with Tween-80) was 79 % of control, the T/C (dose: 50.0 mg/kg/injection, schedule: Q01DX010 (sc), vehicle: saline with Tween-80) was 59 % of control and the T/C (dose: 100.0 mg/kg/injection, schedule: Q01DX010 (sc), vehicle: saline with Tween-80) was 8 % of control.
